Results taken from ChEMBL document CHEMBL1201862, “PubChem BioAssay data set” (2004).
Active and inactive are the calls of the source.

What was measured:
Hexokinase-1 = Hexokinase-1 (Homo sapiens, UniProt P19367); assay: SAR analysis of small molecule inhibitors of hexokinase domain containing I (HKDC1) in the hexokinase 1 selectivity assay. [Related pubchem assays (depositor defined):AID493160, AID493190]; type: functional
Hexokinase HKDC1 = biological target: T1, Hexokinase HKDC1 (Homo sapiens, UniProt Q2TB90); assay: SAR analysis of small molecule inhibitors of hexokinase domain containing I (HKDC1). [Related pubchem assays (depositor defined):AID493160, AID493190]; type: functional
T1 sequence (Q2TB90 whole entry): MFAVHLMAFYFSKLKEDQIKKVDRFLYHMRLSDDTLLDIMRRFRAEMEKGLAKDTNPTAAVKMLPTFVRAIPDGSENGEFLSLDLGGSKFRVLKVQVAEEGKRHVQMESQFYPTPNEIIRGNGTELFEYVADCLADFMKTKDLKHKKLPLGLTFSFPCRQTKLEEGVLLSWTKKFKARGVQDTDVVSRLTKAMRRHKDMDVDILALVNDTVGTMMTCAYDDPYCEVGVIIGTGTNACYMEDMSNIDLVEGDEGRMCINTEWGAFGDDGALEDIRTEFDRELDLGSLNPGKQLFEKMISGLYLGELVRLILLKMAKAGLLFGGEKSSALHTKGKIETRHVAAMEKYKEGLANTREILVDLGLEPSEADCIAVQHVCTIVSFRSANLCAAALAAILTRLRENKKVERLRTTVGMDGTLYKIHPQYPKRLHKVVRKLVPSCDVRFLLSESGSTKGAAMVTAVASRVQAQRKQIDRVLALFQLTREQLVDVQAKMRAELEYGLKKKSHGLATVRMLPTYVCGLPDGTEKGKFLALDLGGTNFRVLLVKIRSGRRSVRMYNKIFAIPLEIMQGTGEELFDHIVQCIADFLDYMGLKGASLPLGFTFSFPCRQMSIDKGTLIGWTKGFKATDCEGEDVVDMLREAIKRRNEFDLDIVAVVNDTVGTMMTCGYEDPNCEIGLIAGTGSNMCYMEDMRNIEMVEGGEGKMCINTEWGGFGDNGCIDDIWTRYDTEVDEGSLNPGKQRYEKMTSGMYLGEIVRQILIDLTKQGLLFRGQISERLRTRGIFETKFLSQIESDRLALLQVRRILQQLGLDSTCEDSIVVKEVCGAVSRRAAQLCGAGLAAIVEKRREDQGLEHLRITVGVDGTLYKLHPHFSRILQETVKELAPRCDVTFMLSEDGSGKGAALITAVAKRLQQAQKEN

[1] = biological target: T2, Short transient receptor potential channel 4 (Mus musculus, UniProt Q9QUQ5); assay: SAR Analysis for the identification of selective inhibits of the transient receptor potential cation channel C4 (TRPC4): Automated Electrophysiology_2. [Related pubchem assays (depositor defined):AID2256]; type: functional
T2 sequence (Q9QUQ5 whole entry): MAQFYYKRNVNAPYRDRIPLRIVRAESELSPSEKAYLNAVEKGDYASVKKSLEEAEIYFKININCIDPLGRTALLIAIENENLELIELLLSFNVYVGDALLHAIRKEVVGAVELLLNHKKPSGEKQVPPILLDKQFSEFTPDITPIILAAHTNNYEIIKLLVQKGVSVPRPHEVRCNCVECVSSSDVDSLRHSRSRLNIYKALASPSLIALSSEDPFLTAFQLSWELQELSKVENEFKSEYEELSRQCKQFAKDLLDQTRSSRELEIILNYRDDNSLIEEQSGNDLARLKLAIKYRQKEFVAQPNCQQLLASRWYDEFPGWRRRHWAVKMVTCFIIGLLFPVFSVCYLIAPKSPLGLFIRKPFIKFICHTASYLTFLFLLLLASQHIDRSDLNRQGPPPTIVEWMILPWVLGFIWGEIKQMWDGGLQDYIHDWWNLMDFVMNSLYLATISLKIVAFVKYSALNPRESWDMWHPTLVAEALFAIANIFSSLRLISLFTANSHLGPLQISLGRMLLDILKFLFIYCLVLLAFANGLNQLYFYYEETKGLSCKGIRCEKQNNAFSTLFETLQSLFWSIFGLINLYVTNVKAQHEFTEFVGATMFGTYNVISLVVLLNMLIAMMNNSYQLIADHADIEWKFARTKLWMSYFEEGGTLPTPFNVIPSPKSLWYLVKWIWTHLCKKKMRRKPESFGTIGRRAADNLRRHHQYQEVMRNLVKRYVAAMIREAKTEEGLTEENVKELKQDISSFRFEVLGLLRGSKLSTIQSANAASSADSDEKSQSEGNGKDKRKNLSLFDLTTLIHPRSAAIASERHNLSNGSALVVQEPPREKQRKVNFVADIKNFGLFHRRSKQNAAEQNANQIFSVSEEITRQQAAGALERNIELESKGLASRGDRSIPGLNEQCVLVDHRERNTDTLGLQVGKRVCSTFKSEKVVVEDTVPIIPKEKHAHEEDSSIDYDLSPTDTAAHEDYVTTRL

[2] = biological target: Short transient receptor potential channel 6 (Mus musculus, UniProt Q61143); assay: mouse TRPC6 channel blockers, concentration series – HEK293 cells, membrane potential dye, IC50, selectivity assay for selective TRPC4 inhibitor project, dose response (AID 492987); type: functional, cell-based
[3] = biological target: T2, Short transient receptor potential channel 4; assay: potency of mouse TRPC4 calcium flux blockers – cell-based, HEK293 TRPC4/mu-opioid, DAMGO stimulus, Fluo-4, dose response (AID 492994); type: functional
Estrogen receptor beta = Estrogen receptor beta (Homo sapiens, UniProt Q92731);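 also: recombinant ER-beta bound to coactivator SRC1 peptide in presence of estradiol agonist; inhibitors block coactivator peptide binding and lower the FRET signal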
[4] = biological target: DNA dC->dU-editing enzyme APOBEC-3A (Homo sapiens, UniProt P31941); assay: Dose Response confirmation of small molecule APOBEC3A DNA Deaminase Inhibitors via a fluorescence-based single-stranded DNA deaminase assay. [Related pubchem assays (depositor defined):AID493011, AID493024]; type: functional
[5] = biological target: T3, Beta-adrenergic receptor kinase 1 (Homo sapiens, UniProt P25098); assay: aptamer displacement from bead-bound GRK2 – biochemical, cherry pick 1, bead flow cytometry, dose response (AID 504500)
T3 sequence (P25098 whole entry): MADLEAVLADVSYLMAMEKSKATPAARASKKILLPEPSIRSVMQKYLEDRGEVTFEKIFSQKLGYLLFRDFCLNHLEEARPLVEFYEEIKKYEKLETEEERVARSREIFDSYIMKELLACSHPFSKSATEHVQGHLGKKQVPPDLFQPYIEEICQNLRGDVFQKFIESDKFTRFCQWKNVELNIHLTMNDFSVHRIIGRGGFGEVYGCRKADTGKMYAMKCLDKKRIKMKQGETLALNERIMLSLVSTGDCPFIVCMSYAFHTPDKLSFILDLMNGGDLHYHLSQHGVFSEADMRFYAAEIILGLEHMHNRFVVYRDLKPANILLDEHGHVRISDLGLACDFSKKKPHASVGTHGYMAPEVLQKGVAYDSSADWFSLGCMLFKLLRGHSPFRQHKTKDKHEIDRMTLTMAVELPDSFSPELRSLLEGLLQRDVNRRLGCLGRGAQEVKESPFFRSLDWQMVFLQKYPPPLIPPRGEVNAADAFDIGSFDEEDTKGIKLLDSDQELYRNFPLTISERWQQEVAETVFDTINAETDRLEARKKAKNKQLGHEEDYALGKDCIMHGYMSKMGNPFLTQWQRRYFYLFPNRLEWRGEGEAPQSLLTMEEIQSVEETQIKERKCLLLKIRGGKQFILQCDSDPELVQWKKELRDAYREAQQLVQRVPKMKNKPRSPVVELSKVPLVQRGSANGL

[6] = biological target: DNA dC->dU-editing enzyme APOBEC-3G (Homo sapiens, UniProt Q9HC16); type: functional;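 also: Dose-response counterscreen measuring inhibition of APOBEC3G DNA deaminase activity, run while confirming APOBEC3A inhibitors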
[7] = biological target: T3, Beta-adrenergic receptor kinase 1; assay: blockers of aptamer binding to GRK2 – biochemical, flow cytometry beads, FAM-aptamer, powder set 1, dose response (AID 588720)
Beta-galactosidase = Beta-galactosidase (Escherichia coli, UniProt Q8VNN2); assay: PubChem AID 485352; type: functional
[8] = biological target: T4, Type-1 angiotensin II receptor (Homo sapiens, UniProt P30556); assay: antagonism of angiotensin II type 1 receptor – cell-based, uHTS hits, selectivity assay for APJ receptor antagonist project, dose response (AID 463214); type: functional;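 also: antagonist potency against angiotensin II stimulated AT1 response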
T4 sequence (P30556 whole entry): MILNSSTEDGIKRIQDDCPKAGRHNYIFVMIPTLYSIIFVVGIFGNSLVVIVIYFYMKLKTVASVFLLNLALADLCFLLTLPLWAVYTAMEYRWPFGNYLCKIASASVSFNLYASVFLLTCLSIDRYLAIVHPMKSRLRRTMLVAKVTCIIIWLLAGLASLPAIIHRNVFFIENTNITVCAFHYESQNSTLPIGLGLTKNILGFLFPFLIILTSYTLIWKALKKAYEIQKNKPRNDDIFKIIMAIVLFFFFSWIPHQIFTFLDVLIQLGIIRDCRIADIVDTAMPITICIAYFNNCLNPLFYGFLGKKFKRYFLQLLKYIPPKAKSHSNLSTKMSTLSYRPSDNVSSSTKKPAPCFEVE

Jurkat [9] = assay: blockers of NF-kB activation in T cells – Jurkat, luciferase reporter, luminescence, B- and T-cell, dose response (AID 489004); type: functional, cell-based; conditions: Homo sapiens;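 also: NF-kB luciferase reporter Jurkat cells stimulated with PMA plus ionomycin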
[10] = HEK-293T viability loss, compound-treated – cell-based, uHTS hits, cytotoxicity control for B/T-cell NF-kB inhibitor project, dose response (AID 489019); type: functional;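 also: IC50 reflects cytotoxicity as loss of cell viability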
[11] = reduction of Shn3 3'UTR-driven luciferase in osteoblasts – cell-based, Clone20 osteoblasts, firefly luciferase, cherry-picked, dose response (AID 624132); type: functional;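 also: firefly luciferase luminescence from reporter carrying the Shn3 3'UTR in osteoblasts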
[12] = loss of viability in HepG2 cells – cell-based, CellTiter-Glo, cherry-picked, cytotoxicity control for Shn3 inhibitor project, dose response (AID 624134); type: functional
[13] = non-specific 3'UTR reporter inhibition in Clone20-Shn3RL – cell-based, Renilla luciferase, cherry-picked, counter-screen for Shn3 inhibitor project, dose response (AID 624133); type: functional
[14] = biological target: T5, Beta-2 adrenergic receptor (Homo sapiens, UniProt P07550); assay: ADRB2 activation measured by internalization – cell-based, FAP fluorogen, flow cytometry, cherry pick 1, dose response (AID 588763); type: functional
[15] = biological target: T5, Beta-2 adrenergic receptor; assay: Dose response for HTS for Beta-2AR agonists via FAP method from Powderset3.; type: functional
[16] = biological target: Voltage-gated inwardly rectifying potassium channel KCNH2 (Homo sapiens, UniProt Q12809); conditions: Potency;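 also: confirmatory quantitative high-throughput screen measuring inhibition of hERG channel activity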
[17] = Luminescence Cell-Based Dose Retest to Confirm Inhibitors of Cancer Stem Cells. [Related pubchem assays (depositor defined):AID2717, AID2721]; type: functional; conditions: Homo sapiens
[18] = viability loss of HMLE_sh_eGFP cells – cell-based, luminescence, counter-screen for HMLE_sh_ECad selective toxicity project, dose response (AID 463074); type: functional, Homo sapiens;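 also: HMLE human mammary epithelial cells expressing control shRNA against eGFP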
HEK293 [19] = assay: HEK293T cell viability loss, resazurin readout – resazurin fluorescence, cytotoxicity control for NF-kB activator project, SAR follow-up (AID 493251); type: functional, cell-based; conditions: Homo sapiens
Jurkat [20] = assay: SAR Analysis of small molecule inhibitors of T-cell specific antigen receptor-induced NF-kB activation in a Jurkat cell line using a luminescence assay - Set 2. [Related pubchem assays (depositor defined):AID435003, AID435012, AID465]; type: functional, cell-based; conditions: Homo sapiens
HEK293 [21] = assay: SAR Analysis of small molecule inhibitors of T-cell specific antigen receptor-induced NF-kB activation in a HEK-293T cell line using a luminescence assay - Set 2. [Related pubchem assays (depositor defined):AID435003, AID435012, AID489026]; type: functional, cell-based; conditions: Homo sapiens

T5 sequence (P07550 whole entry): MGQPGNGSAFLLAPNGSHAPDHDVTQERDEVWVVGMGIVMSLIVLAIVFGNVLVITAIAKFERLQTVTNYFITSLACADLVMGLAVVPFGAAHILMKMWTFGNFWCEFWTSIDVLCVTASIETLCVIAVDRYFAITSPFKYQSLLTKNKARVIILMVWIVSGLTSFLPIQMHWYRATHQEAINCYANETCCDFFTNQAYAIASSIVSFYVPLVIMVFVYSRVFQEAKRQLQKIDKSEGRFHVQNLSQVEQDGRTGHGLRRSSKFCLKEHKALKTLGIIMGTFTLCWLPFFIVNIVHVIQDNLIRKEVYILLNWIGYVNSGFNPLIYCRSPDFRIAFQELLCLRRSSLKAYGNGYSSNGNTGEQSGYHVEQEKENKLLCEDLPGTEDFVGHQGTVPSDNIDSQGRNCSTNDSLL
Sequence of Estrogen receptor beta (Q92731 whole entry): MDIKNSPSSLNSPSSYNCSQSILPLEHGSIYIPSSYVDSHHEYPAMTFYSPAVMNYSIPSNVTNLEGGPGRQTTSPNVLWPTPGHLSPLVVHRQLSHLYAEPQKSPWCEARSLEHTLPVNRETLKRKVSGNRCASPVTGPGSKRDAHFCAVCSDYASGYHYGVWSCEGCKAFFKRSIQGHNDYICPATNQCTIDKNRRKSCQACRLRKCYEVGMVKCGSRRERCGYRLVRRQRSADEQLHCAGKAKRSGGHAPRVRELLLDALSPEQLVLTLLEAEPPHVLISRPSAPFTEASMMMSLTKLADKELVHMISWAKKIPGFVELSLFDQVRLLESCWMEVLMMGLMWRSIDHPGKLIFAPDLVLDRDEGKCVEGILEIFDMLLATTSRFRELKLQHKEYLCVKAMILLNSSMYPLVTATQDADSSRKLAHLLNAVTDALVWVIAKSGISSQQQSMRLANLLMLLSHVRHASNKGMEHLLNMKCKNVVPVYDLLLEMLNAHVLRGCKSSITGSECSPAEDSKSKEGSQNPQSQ
Sequence of Hexokinase-1 (P19367 whole entry, the tested form may be a part): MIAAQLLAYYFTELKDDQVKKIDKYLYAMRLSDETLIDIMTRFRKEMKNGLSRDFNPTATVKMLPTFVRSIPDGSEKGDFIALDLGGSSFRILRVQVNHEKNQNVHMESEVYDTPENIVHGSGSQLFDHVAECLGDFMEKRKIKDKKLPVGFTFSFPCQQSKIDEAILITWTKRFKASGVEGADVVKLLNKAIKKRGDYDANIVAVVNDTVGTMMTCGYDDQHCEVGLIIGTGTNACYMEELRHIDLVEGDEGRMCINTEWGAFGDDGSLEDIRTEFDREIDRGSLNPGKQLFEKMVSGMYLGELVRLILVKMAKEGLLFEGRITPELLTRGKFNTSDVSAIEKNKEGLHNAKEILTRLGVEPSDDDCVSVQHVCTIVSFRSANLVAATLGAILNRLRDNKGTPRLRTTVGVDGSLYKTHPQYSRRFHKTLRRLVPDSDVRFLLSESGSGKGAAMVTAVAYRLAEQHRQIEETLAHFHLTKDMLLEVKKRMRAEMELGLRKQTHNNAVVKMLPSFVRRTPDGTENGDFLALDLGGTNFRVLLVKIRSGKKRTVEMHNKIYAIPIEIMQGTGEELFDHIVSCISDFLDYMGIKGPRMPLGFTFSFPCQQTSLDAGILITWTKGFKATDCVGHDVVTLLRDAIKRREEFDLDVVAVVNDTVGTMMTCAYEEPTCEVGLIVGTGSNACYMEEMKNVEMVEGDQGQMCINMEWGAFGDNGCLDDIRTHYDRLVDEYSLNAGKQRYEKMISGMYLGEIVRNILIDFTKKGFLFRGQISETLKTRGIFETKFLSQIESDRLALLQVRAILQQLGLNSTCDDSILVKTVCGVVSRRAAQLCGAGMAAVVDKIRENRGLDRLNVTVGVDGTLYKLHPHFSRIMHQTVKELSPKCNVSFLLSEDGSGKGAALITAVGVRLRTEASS
Sequence of Short transient receptor potential channel 6 (Q61143 whole entry): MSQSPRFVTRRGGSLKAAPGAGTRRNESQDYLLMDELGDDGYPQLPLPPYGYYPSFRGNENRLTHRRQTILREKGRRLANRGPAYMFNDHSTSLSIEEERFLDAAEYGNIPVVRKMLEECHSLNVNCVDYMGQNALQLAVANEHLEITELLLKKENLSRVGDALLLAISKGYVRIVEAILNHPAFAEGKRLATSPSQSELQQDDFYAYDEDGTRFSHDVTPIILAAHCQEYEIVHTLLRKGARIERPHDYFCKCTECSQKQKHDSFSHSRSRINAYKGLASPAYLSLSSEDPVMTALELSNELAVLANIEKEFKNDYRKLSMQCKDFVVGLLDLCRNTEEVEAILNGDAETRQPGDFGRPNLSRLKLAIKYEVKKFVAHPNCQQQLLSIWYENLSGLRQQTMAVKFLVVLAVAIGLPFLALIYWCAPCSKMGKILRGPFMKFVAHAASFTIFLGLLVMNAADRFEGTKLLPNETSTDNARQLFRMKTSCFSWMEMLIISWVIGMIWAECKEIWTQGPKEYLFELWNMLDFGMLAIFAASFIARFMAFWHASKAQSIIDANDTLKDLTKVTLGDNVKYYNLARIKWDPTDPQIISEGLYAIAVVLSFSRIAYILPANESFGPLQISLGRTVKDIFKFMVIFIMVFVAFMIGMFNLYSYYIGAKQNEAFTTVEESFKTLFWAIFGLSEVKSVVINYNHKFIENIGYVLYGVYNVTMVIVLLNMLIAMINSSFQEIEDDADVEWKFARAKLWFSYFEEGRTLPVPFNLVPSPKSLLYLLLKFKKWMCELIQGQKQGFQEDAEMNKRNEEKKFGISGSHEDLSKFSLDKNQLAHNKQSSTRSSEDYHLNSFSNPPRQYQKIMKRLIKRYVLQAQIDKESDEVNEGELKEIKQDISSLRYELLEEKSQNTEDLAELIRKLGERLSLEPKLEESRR
Sequence of DNA dC->dU-editing enzyme APOBEC-3G (Q9HC16 whole entry): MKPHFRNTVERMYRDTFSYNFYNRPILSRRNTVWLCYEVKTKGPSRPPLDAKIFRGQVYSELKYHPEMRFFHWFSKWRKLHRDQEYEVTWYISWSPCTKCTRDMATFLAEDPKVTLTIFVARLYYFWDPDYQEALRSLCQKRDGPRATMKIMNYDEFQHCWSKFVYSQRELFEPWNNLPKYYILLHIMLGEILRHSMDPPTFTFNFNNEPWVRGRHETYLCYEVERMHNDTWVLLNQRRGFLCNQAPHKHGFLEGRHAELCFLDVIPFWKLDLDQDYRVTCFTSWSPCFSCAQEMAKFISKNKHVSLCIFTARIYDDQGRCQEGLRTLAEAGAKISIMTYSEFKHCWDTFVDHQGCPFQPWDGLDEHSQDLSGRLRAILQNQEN
Sequence of Beta-galactosidase (Q8VNN2 whole entry): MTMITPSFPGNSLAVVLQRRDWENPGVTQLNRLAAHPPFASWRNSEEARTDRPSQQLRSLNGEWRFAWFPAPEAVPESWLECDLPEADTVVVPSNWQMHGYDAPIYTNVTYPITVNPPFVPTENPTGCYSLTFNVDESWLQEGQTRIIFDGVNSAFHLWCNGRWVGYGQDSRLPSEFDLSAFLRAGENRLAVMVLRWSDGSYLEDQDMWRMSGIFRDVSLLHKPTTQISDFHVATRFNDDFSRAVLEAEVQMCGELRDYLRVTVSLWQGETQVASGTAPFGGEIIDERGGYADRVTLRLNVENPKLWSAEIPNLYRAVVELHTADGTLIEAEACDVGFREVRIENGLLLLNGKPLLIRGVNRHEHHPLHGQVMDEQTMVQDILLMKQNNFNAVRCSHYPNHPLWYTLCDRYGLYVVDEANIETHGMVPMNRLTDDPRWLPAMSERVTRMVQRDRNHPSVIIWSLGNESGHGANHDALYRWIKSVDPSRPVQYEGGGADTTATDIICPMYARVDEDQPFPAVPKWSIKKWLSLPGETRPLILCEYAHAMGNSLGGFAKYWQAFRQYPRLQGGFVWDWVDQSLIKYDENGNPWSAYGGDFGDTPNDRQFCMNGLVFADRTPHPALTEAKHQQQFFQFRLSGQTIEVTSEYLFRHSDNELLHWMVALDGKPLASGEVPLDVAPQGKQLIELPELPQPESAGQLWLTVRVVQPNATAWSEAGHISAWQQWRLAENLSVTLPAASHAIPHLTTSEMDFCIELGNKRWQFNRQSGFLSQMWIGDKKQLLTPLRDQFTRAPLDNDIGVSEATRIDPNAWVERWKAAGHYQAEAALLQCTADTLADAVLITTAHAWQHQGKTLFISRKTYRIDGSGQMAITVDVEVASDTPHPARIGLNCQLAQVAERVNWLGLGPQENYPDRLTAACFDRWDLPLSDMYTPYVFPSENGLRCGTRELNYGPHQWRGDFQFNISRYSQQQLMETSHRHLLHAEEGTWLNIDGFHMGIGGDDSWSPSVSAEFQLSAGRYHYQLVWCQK
Sequence of DNA dC->dU-editing enzyme APOBEC-3A (P31941 whole entry): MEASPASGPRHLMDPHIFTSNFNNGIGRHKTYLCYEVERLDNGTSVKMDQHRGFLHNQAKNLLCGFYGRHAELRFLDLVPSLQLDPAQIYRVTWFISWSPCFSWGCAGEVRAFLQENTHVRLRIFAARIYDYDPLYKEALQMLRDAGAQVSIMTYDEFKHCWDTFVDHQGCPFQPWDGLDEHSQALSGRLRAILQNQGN

In the case of O=c1c2ccccc2nc(/C=C/c2ccccc2Cl)n1Cc1ccccc1, the IC50 (Hexokinase-1) is reported as > 80 µM (inactive) and the IC50 (Hexokinase HKDC1) is reported as > 80 µM (inactive).
In the case of Cc1cc(N2CCCC2)nc2c(C)cccc12, the IC50 [1] is reported as 9.96 µM (active), the IC50 [2] is reported as 9.8 µM (active) and the IC50 [3] is reported as 10.7 µM (active).
With Cc1cc(=O)[nH]c(SCC(=O)NCc2ccco2)n1 the IC50 (Estrogen receptor beta) was 6.27 µM (active), the IC50 [4] was 17.4 µM (active) and the EC50 [5] was 22.1 µM (inactive). For the same compound, the IC50 [6] was 43.4 µM (active) and the EC50 [7] was 44.9 µM (active).
With O=C1/C(=C/c2ccccc2)C[C@@]2(O)[C@H]3Cc4ccc(O)c5c4[C@@]2(CCN3CC2CC2)C1O5 (stereo not given in full) the EC50 (Beta-galactosidase) was > 40 µM (inactive), the IC50 [8] was 14 µM (active) and the IC50 (Jurkat [9]) was 4.22 µM (active). The IC50 [10] was > 80 µM (inactive), the AC50 [11] was 4.64 µM (active) and the AC50 [12] was 8.88 µM (active). For the same compound, the AC50 [13] was 7.78 µM (active).
For C=CCn1c(CCNC(=O)c2cccs2)nnc1SCC(=O)c1ccc(Br)cc1, the EC50 [14] was 0.214 µM (active) and the EC50 [15] was 0.00548 µM (active).
For COc1cc([C@@H]2c3cc4c(cc3[C@H](O)C3COC(=O)[C@@H]32)OCO4)cc(OC)c1OC (stereo not given in full), the AC50 [16] was 0.501 µM (inconclusive).
For Cc1ccc(Nc2nc(N)nc(CSC(=S)N3CCN(c4ccccc4)CC3)n2)cc1, the AC50 [17] was 13.4 µM (active) and the AC50 [18] was 31.4 µM (active).
With COc1ccc(C(=O)Nc2ccc(NC(=O)c3cc4ccccc4o3)cc2)cc1Br the IC50 (HEK293 [19]) was > 80 µM (inactive), the IC50 (Jurkat [20]) was > 79 µM (inactive) and the IC50 (HEK293 [21]) was > 80 µM (inactive).
